Source: ChEMBL document CHEMBL1127776, “Stereospecific synthesis of a pentopyranosyl analogue of d4T monophosphate” (Bioorg Med Chem Lett, 1994)
Active and inactive are the calls of the source.

Experiments:
Format in all cases: functional, cell-based
Conditions in all cases: Homo sapiens
CCRF-CEM [1] = experiment: Compound was tested for toxicity to the CEM cell monolayers; No toxicity
CCRF-CEM [2] = experiment: Compound was tested for the inhibition of HIV-2 replication in CEM cell culture up to 100 ug/mL concentration; Not active
CCRF-CEM [3] = experiment: Compound was tested for the inhibition of HIV-1 replication in CEM cell culture up to 100 ug/mL concentration; Not active

Cc1cn(C2C=CC(OCP(=O)(O)O)CO2)c(=O)[nH]c1=O (stereo not drawn)
inactive: Toxicity (CCRF-CEM [1]) Not toxic | inhibition (CCRF-CEM [2]) | inhibition (CCRF-CEM [3])
